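Five compound concentrations were applied to cells in 96-well plates for 48 hours; endpoints were derived by simple linear interpolation of the resulting dose-response curve. GI50 marks 50% less growth. TGI denotes the concentration required for complete inhibition of growth.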 Some results are limits rather than exact numbers.

Among the data in PubChem BioAssay (NCI) are TGI and GI50 values, retold here.

Test in all cases: NCI tumour cell line growth inhibition, 48 h
In test [1] the test system is NCI-H23 lung.
Test [2] relates to BT-549 breast.
Test [3] relates to OVCAR-4 ovarian.
Test [4] concerns ACHN renal.
Test [5] concerns UACC-62 melanoma.
For test [6], the system named is SK-MEL-2 melanoma.
Test [7] concerns TK-10 renal.
For test [8], the system named is SF-268 CNS.
For test [9], the system named is SF-539 CNS.
Test [10] concerns SR leukemia.
The test system of test [11] is OVCAR-3 ovarian.
The subject of test [12] is KM12 colon.
Test [13] relates to MCF7 breast.
Test [14] relates to NCI-H226 lung.
For test [15], the system named is A498 renal.
The subject of test [16] is HCT-116 colon.
Test [17] deals with NCI-H522 lung.
Test [18] relates to HL-60(TB) leukemia.
The subject of test [19] is MDA-N.

On to `CS(=O)(=O)O[C@H]1CN2C[C@@H](O)[C@@H](O)[C@H]2[C@H]1CO`, for which the TGI in test [1], in [2], in [3], in test [4], in test [5] and in test [6] was > 100 µM throughout. Also, the TGI in test [7], in test [8], in test [9], in [10], in [11] and in test [12] was > 100 µM throughout. Further, the TGI in test [13], in test [14], in test [15] and in test [16] was > 100 µM throughout.

Turning to `Oc1cn(-c2ccc(Cl)cc2)nc1-c1nnc(-c2ccccc2)o1`, the TGI in test [1] is 1.01 µM; in test [17], 22.9 µM; in test [2], > 91.9 µM; in [3], > 100 µM; in [4], 24.5 µM; in test [5], > 51.1 µM. For the same molecule, the TGI in [6] was > 71.3 µM; in test [7] it was 3.76 µM; in test [8], 17.9 µM; in test [9], 27 µM; in test [10], 20.8 µM; in test [11] it was 11.6 µM. For the same molecule, the TGI in test [12] was found to be 4.05 µM; in test [18] it was 17.7 µM; in [13], 7.16 µM; in [14], 30.7 µM; in [15] it was 56.3 µM; in test [16] it was 1.14 µM. In addition, the GI50 in test [2] is 4.24 µM.

`CN(C(=O)C1=CCC2(CC1)OCCO2)c1ccccc1OS(=O)(=O)C(F)(F)F`: the TGI in [1] is > 100 µM; in [3] it was > 100 µM; in test [4], > 100 µM; in test [5] it was > 100 µM; in [6], > 100 µM; in [8], 97.6 µM. Further, the TGI in test [19], in test [10], in test [11], in test [12], in test [18] and in [13] was > 100 µM throughout. Further, the values for the TGI in test [14], in [15] and in test [16] were 85.4 µM, > 100 µM and > 100 µM, respectively.

With `COC(=O)c1cc2c3c(ccc2[nH]1)N(C(=O)c1cc2cc(OC)c(OC)c(OC)c2[nH]1)CC3CCl` (centres undefined), the TGI in [1], in test [17], in test [2], in [3], in test [4] and in test [5] was > 100 µM in each case. In addition, the TGI was > 100 µM in test [6]; > 100 µM in [7]; > 100 µM in test [8]; > 79.2 µM in [9]; > 100 µM in test [10]; > 100 µM in test [11]. Moreover, the TGI is > 100 µM in [12]; > 100 µM in [13]; > 75 µM in test [14]; > 100 µM in test [15]; > 100 µM in test [16].

In the case of `CCOC(=O)C1=C(C)N(Cc2ccc(Cl)cc2Cl)C2(O)C=CC(=O)C3C(=O)N(c4ccccc4)C(=O)C132` (centres undefined), the TGI in [1] amounted to 3.53 µM; in test [17], 3.64 µM; in test [2], 3.27 µM; in test [3] it was 4.2 µM; in test [4], 3.08 µM; in test [5], 3.74 µM. Besides, the TGI in test [6] was 4.27 µM; in test [7] it was 8.09 µM; in test [8] it was 11.3 µM; in test [9], 5.38 µM; in test [10], 2.23 µM; in [11] it was 3.44 µM. Besides, the TGI in [12] is 3.65 µM; in test [18], 6.67 µM; in [13], 5.11 µM; in test [14], 3.09 µM; in test [15] it was 16.9 µM; in [16], > 100 µM.

Turning to `CC(=O)Nc1ccc(C(=O)NN2C(=O)CSC2c2ccc([N+](=O)[O-])cc2)cc1` (centres undefined), the TGI in test [1], in [3], in test [4], in [5], in test [6] and in [7] was > 100 µM throughout. In addition, the TGI in [8], in test [9], in test [19], in test [11], in test [12] and in test [13] was > 100 µM in each case. Further, the TGI in [14], in test [15] and in [16] was > 100 µM in each case.

As for `O=C(NCC(=O)N1CCCC1C(=O)OC(=O)C1CCCN1C(=O)CNC(=O)OCc1ccccc1)OCc1ccccc1` (centres undefined), the TGI is > 100 µM in test [1]; > 100 µM in test [17]; > 100 µM in test [3]; > 100 µM in test [4]; 34.6 µM in [5]; 44.8 µM in test [6]. Further, the TGI is 49.7 µM in [7]; 89 µM in [8]; 40.6 µM in test [9]; > 100 µM in test [19]; > 100 µM in test [10]; > 100 µM in test [11]. Moreover, the TGI was > 100 µM in [12]; 70.3 µM in [18]; 60 µM in [13]; 66.2 µM in test [14]; > 100 µM in test [15]; > 100 µM in test [16].

Regarding `CN(CC(=O)O)c1ncc2c(n1)-c1ccccc1SC2`, the TGI in test [1], in test [17], in [3], in test [4], in test [5] and in [6] was > 100 µM in each case. In addition, the TGI in test [7], in test [8], in [9], in [19], in test [10] and in test [12] was > 100 µM each time. Besides, the TGI in [18], in test [13], in [15] and in [16] was > 100 µM each time.
